According to patent US20240269145A1, “USE OF INDOLE COMPOUND AS INHIBITORS OF FERROPTOSIS” (MITOIMMUNE THERAPEUTICS INC., priority 2023, published 2024):

What was measured:
Type in all cases: cell-based
NIH/3T3 = assay: Cell death protection, LDH release after RSL3; settings: 24 hours
Procedure: (§1) To confirm the protective effect on cardiac cells, adrenal medulla cells, renal fibroblasts, retinal epithelial cells, lung epithelial cells, renal proximal tubule epithelial cells, hippocampal neurons, and fibroblasts, 4×10^3 to 1.2×10^4 cells of each cell type were dispensed into 96-well plates and cultured for 18 to 24 hours. Each well was treated with the example compound, which was diluted so that the final concentration became 0.001, 0.003, 0.01, 0.03, 0.1, 0.3, 1, 3, and 10 μM, and culture was performed for 15 to 20 minutes. […] To confirm the cell protecting effect of the example compounds, a cytotoxicity LDH assay kit [Dojindo; CK12] was used to measure the level of extracellular secretion of lactate dehydrogenase (LDH). Briefly, at the time point when the 24-hour treatment of each cell type with RSL3 ended, 70 μL of each supernatant from cell culture medium was taken and transferred to a new 96-well plate. After adding 70 μL/well (the same amount as the sample) of the assay buffer included in the kit, the resulting mixture was wrapped with foil and allowed to react at room temperature for 15 to 20 minutes. After observing the color change of the sample, 35 μL/well of a stop solution was added, and the absorbance value at 490 nm was measured using an iD3 spectrophotometer to calculate the EC50 value.
(§2) Table 3. Effect of protecting cardiac cells, adrenal medulla cells, renal fibroblasts, retinal epithelial cells, lung epithelial cells, renal proximal tubule epithelial cells, hippocampal neurons, and fibroblasts against cell death induced by RSL3.

H9C2 = assay: Cell death protection, LDH release after RSL3; settings: H9C2, RSL3 0.5 μM, 24 hours
Procedure: as §1, §2

MLE-12 = assay: Cell death protection, LDH release after RSL3; settings: 24 hours
Procedure: as §1, §2

PC-12 = assay: Cell death protection, LDH release after RSL3; settings: PC-12, RSL3 0.3 μM, 24 hours
Procedure: as §1, §2

HK-2 = assay: Cell death protection, LDH release after RSL3; settings: HK-2, RSL3 0.3 μM, 24 hours
Procedure: as §1, §2

NIH/3T3 cells = assay: Cytosolic lipid ROS after erastin, Experimental Example 3-3; settings: NIH/3T3, erastin 3 μM, 6 hr; tested 0.1, 1, 10 μM
Procedure: [The source words this procedure for another cell line and says it was used here with some conditions changed.] Experimental Example 3-1: To confirm the protective effect against cytosolic lipid reactive oxygen species in lung epithelial cells, 2×10^5 MLE-12 cells were dispensed into each well of a 12-well plate and cultured for 18 to 24 hours. Each well was treated with Example Compound 1 and ferrostatin-1, which were diluted so that their final concentration became 0.01, 0.1, 1, and 10 μM, and culture was performed for 15 minutes. Afterwards, the cells were treated so that the final concentration of RSL3 became 1 μM, and cultured for 2 hours. To confirm the inhibitory effect against cytosolic lipid reactive oxygen species, BODIPY™ 581/591 C11 (lipid peroxidation sensor) [Invitrogen™; D3861] was used. According to the manufacturer's experimental method, BODIPY™ 581/591 C11 was diluted in the cell culture medium so that the final concentration became 5 μM, and the cells were treated therewith and allowed to react for 30 minutes to perform fluorescent staining. The MLE-12 cells fluorescently stained with BODIPY™ 581/591 C11 were detached from the 12-well plate using 0.25% Trypsin-EDTA and transferred to a microtube, and the fluorescence (excitation/absorption 500 to 650 nm/510 to 665 nm) was measured using BD FACSLyric™ to calculate the rate of change compared to the control group. […]

MLE-12 cells [1] = assay: Mitochondrial iron ion accumulation (Mito-FerroGreen, flow cytometry) after RSL3; settings: MLE-12, 1 μM RSL3, 8 hours
Procedure: To confirm the inhibitory effect against mitochondrial iron ion accumulation in lung epithelial cells, 2×10^5 MLE-12 cells were dispensed into each well of a 12-well plate and cultured for 18 to 24 hours. Each well was treated with Example Compound 1 and ferrostatin-1, which were diluted so that their final concentration became 0.01, 0.1, 1, and 10 μM, and culture was performed for 15 minutes. Afterwards, the cells were treated so that the final concentration of RSL3 became 1 μM, and cultured for 8 hours. To confirm the inhibitory effect against mitochondrial iron ion accumulation, Mito-FerroGreen [DOJINDO; M489] was used. According to the manufacturer's experimental method, Mito-FerroGreen was diluted in the cell culture medium so that the final concentration became 1 μM, and the cells were treated therewith and allowed to react for 30 minutes to perform fluorescent staining. The MLE-12 cells fluorescently stained with Mito-FerroGreen were detached from the 12-well plate using 0.25% Trypsin-EDTA and transferred to a microtube, and the fluorescence (excitation/absorption 505 nm/535 nm) was measured using BD FACSLyric™ to calculate the rate of change compared to the control group.

MLE-12 cells [2] = assay: Cytosolic lipid ROS (BODIPY 581/591 C11) after RSL3, Experimental Example 3-1; settings: MLE-12, 1 μM RSL3, 2 hours; tested 0.01-10 μM
Procedure: Experimental Example 3-1: To confirm the protective effect against cytosolic lipid reactive oxygen species in lung epithelial cells, 2×10^5 MLE-12 cells were dispensed into each well of a 12-well plate and cultured for 18 to 24 hours. Each well was treated with Example Compound 1 and ferrostatin-1, which were diluted so that their final concentration became 0.01, 0.1, 1, and 10 μM, and culture was performed for 15 minutes. Afterwards, the cells were treated so that the final concentration of RSL3 became 1 μM, and cultured for 2 hours. To confirm the inhibitory effect against cytosolic lipid reactive oxygen species, BODIPY™ 581/591 C11 (lipid peroxidation sensor) [Invitrogen™; D3861] was used. According to the manufacturer's experimental method, BODIPY™ 581/591 C11 was diluted in the cell culture medium so that the final concentration became 5 μM, and the cells were treated therewith and allowed to react for 30 minutes to perform fluorescent staining. The MLE-12 cells fluorescently stained with BODIPY™ 581/591 C11 were detached from the 12-well plate using 0.25% Trypsin-EDTA and transferred to a microtube, and the fluorescence (excitation/absorption 500 to 650 nm/510 to 665 nm) was measured using BD FACSLyric™ to calculate the rate of change compared to the control group.

MLE-12 cells [3] = assay: Cytosolic ROS (CM-H2DCFDA) after RSL3; settings: MLE-12, 1 μM RSL3, 2 hours
Procedure: To confirm the protective effect against cytosolic reactive oxygen species in lung epithelial cells, 2×10^5 MLE-12 cells were dispensed into each well of a 12-well plate and cultured for 18 to 24 hours. Each well was treated with Example Compound 1 and ferrostatin-1, which were diluted so that their final concentration became 0.01, 0.1, 1, and 10 μM, and culture was performed for 15 minutes. Afterwards, the cells were treated so that the final concentration of RSL3 became 1 μM, and cultured for 2 hours. To confirm the inhibitory effect against cytosolic reactive oxygen species, CM-H2DCFDA (general oxidative stress indicator) [Invitrogen™; C6827] was used. According to the manufacturer's experimental method, CM-H2DCFDA was diluted in the cell culture medium so that the final concentration became 5 μM, and the cells were treated therewith and allowed to react for 30 minutes to perform fluorescent staining. The MLE-12 cells fluorescently stained with CM-H2DCFDA were detached from the 12-well plate using 0.25% Trypsin-EDTA and transferred to a microtube, and the fluorescence (excitation/absorption 492 to 495 nm/517 to 527 nm) was measured using BD FACSLyric™ to calculate the rate of change compared to the control group.

H9C2 cells = assay: Cell death protection by real-time imaging after erastin; settings: H9C2, erastin 1 μM, compound 0.1 μM, imaged every 3 hours for 24 hours
Procedure: To confirm a cell death protection effect on cardiac cells through images, 2.5×10^5 H9C2 cells were dispensed into each confocal dish and cultured for 2 days. Each dish was treated with Example Compound 1 and ferrostatin-1, which were diluted to a final concentration of 0.1 μM, and culture was performed for 20 minutes. Afterwards, the cells were treated with erastin so that the final concentration became 1 μM, and images were taken using real-time imaging equipment [Nanolive; CX-A] every 3 hours for 24 hours to confirm changes in the H9C2 cells.

Row | Structure (SMILES) | EC50 (NIH/3T3; Mus musculus, NIH3T3, NIH/3T3, RSL3 3 μM) | EC50 (H9C2; Rattus norvegicus) | EC50 (MLE-12; MLE12, MLE-12, RSL3 1 μM) | EC50 (PC-12; Rattus norvegicus) | EC50 (HK-2; Homo sapiens) | concentration at which cytosolic lipid reactive oxygen species were decreased (NIH/3T3 cells) | concentration at which mitochondrial iron ion accumulation was significantly decreased (MLE-12 cells [1]) | concentration at which cytosolic lipid reactive oxygen species were significantly decreased (MLE-12 cells [2]) | concentration at which cytosolic reactive oxygen species were significantly decreased (MLE-12 cells [3]) | time for which cell death was inhibited (H9C2 cells) | EC50 (NIH/3T3; NIH/3T3, RSL3 3 μM) | EC50 (H9C2) | EC50 (MLE-12; MLE-12, RSL3 1 μM) | EC50 (PC-12) | EC50 (HK-2) | time from which cell death was observed (H9C2 cells)
1 | O=S1(=O)CCN(Cc2cc(NC3CCOCC3)c3[nH]c(-c4ccccc4)cc3c2)CC1 [Example 1, 5-[(1,1-dioxido-4-thiomorpholinyl)methyl]-2-phenyl-N-(tetrahydro-2H-pyran-4-yl)-1H-indole-7-amine] | 0.03 to 0.1 µM | 0.03 to 0.1 µM | ≤ 0.03 µM | 0.03 to 0.1 µM | ≤ 0.03 µM | 0.1 µM | 0.01 µM | 0.1 µM | 0.01 µM | up to 24 hours |  |  |  |  |  | 
2 | CCOC(=O)c1ccc(NC2CCCCC2)c(N)c1 [Fer-1, ferrostatin-1, reference compound] |  |  |  |  |  | 10 µM | 0.1 µM | 0.1 µM | 0.1 µM | up to 18 hours | 0.03 to 0.1 µM | 0.03 to 0.1 µM | 0.03 to 0.1 µM | 0.03 to 0.1 µM | 0.03 to 0.1 µM | ≥ 21 h
